Measurements: patent publication US12440495B2, “Combination therapy for treatment of myeloproliferative neoplasms” (Incyte Corporation, priority 2020, dated 2025)
Read-outs that look alike come from different tables or passages of the source.

How the values were obtained:
[1] = tested on: cMyc, a BRD4 target gene, in KMS12BM cells; assay: Ex vivo pharmacodynamic spiked cell assay, cMyc protein in KMS12BM cells in participant plasma; format: cell-based, human; conditions: for inhibition of cMyc at trough: Cycle 1 Day 8 predose; for average cMyc inhibition at steady state: Day 8, predose to 8 hours
Description: Pharmacodynamic analysis was performed using an ex vivo assay measuring protein levels of cMyc, a BRD4 target gene, in KMS12BM cells, which were spiked into participant plasma samples collected at predose and various postdose timepoints. […] The average cMyc inhibition at steady state (Day 8, from predose to 8 hours) was 30%, 44%, and 65% for the dose of 8 mg (n=11), 12 mg (n=51), and 16 mg (n=7), respectively. […] Inhibition of cMyc was reduced to <10% at trough (Cycle 1 Day 8 predose) in the 8-mg and 12-mg cohorts and ˜30% in the 16-mg cohort.

[2] = tested on: MPLW515L expressing bone marrow; assay: MPLW515L mouse model of MPN; conditions: Compound 1 10 mg/kg QD
myelofibrosis = assay: Clinical efficacy in myelofibrosis participants (NCT04279847); format: in vivo, human
Description: This is a Phase 1, open-label, 2-part study of Compound 1 as monotherapy in participants with relapsed or refractory myelofibrosis (for further details see “Safety and Tolerability Study of INCB057643 in Participants With Myelofibrosis”, ClinicalTrials.gov Identifier: NCT04279847, which is incorporated herein by reference in its entirety). INCB057643 is also referred to as Compound 1 in the present disclosure. […] Participants will receive 4 mg QD of Compound 1 on a continuous basis.
A first participant and a second participant had relapsed myelofibrosis which was treated with Compound 1 monotherapy. A third participant was being treated with single-agent ruxolitinib but having suboptimal responses.

HEL cells = assay: JAK2 V617F expressing HEL xenograft model of erythroleukemia; format: in vivo; conditions: 14 days
Description: For efficacy studies, measurements of tumors were taken every 2 to 3 days using a digital caliper. Tumor volumes were calculated using the formula: Volume=(length×width2)/2 where width was the smaller dimension. Body weights were also monitored.
Animals were sacrificed (1) at end of study, (2) if tumor size reached 10% of total body weight, or (3) if 20% of body weight is lost.
Statistical analyses were performed using Prism Graphpad software. All comparisons were done using 2-way ANOVA with p<0.05 deemed significant.
Female SCID mice were subcutaneously inoculated with 10^7 HEL cells in matrigel. When tumors reached approximately 160 mm^3, mice (n=10 per group) were dosed orally with Compound 1 for 14 days as follows: • 1. BID at either 1 or 3 mg/kg, or vehicle control • 2. QD at 3, 10, or 30 mg/kg

[3] = Clinical pharmacokinetics of Compound 1 monotherapy, Phase 1/2, advanced malignancies; format: in vivo, human
Description: The clinical PK of Compound 1 in participants with advanced malignancies (solid and hematologic malignancies) were evaluated in a Phase 1/2, open-label, dose-escalation/dose-expansion, safety and tolerability study. Participants received continuous QD doses of Compound 1. As of the data cutoff date (23 Sep. 2019), 25, 101, and 8 participants who received 8 mg, 12 mg, and 16 mg, respectively, across Part 1 and Part 2 (Compound 1 treated as monotherapy) have been assessed for PK. The PK parameters of parent Compound 1 are summarized in Table 2 and Table 3 (see FIG. 5). Table 2 presents a summary of Compound 1 pharmacokinetic parameters for Compound 1 as monotherapy (part 1 and 2) at cycle 1 day 1. Table 3 presents a summary of Compound 1 pharmacokinetic parameters for Compound 1 as monotherapy (part 1 and 2) at steady-state (cycle 1 day 8).
Blood samples for the determination of plasma concentrations of Compound 1 in Parts 1 and 2 were collected at predose on Cycle 1 Day 1, Cycle 1 Day 2, and Cycle 1 Day 8, and at 0.5, 1, 2, 4, 6, and 8 hours on Cycle 1 Day 1 and Cycle 1 Day 8. The plasma samples of Compound 1 were assayed by a validated LC-MS/MS method.

SET-2 cells = assay: SET-2 xenograft model
[4] = Treatment-emergent adverse events and exposure-safety analysis, Compound 1 monotherapy; format: in vivo, human; conditions: for predicted probability of hyperglycemia incidence: from AUC-hyperglycemia relationship; for AUC: human, plasma, oral
Description: The selected clinical safety endpoints as deemed appropriate (eg, frequently occurring TEAEs (treatment-emergent adverse events), incident rate >20% for all AEs (adverse events) and clinically notable adverse events) were used to evaluate exposure-safety relationships. The safety data from a total of […] participants (including both solid tumors and hematologic malignancies) receiving monotherapy treatment of Compound 1 (n=10 at 8 mg, n=89 at 12 mg, and n=8 at 16 mg) in Parts 1 and 2 were used for analysis.
No statistically significant correlation was identified for steady-state Compound 1 AUC and any TEAEs or clinically notable AEs evaluated in this analysis, except hyperglycemia (p-value<0.05). […] Lack of correlation between Compound 1 AUCss.0-24 and TEAEs could be due to the narrow dose range (8, 12, or 16 mg) explored in this study and small sample sizes in the 8-mg and 16-mg groups of the study (the majority of participants received 12 mg).

[5] = ruxolitinib 60 mg/kg BID, or both, oral, 14 days
[6] = ruxolitinib 60 mg/kg BID, combination
[7] = monotherapy 8, 12 or 16 mg, all grades and causality

With CN1C(=O)C(C)(C)Oc2c(-c3cn(C)c(=O)c4[nH]ccc34)cc(S(C)(=O)=O)cc21 [Compound 1, 2,2,4-trimethyl-8-(6-methyl-7-oxo-6,7-dihydro-1H-pyrrolo[2,3-c]pyridin-4-yl)-6-(methylsulfonyl)-2H-1,4-benzoxazin-3(4H)-one] the “inhibition of cMyc at trough” value ([1]; 8 mg) was less than 10%, the “average cMyc inhibition at steady state” value ([1]; 8 mg, n=11) was 30% and the “inhibition of cMyc at trough” value ([1]; 12 mg) was less than 10%. For the same compound, the “average cMyc inhibition at steady state” value ([1]; 12 mg, n=51) was 44%, the “inhibition of cMyc at trough” value ([1]; 16 mg) was roughly 30% and the “average cMyc inhibition at steady state” value ([1]; 16 mg, n=7) was 65%. For the same compound, the IC50 ([1]; Homo sapiens, KMS-12-BM, 70 participants, nonlinear regression, plasma concentration, read-out: IC50 (ex vivo, composite PK PD curve)) was 202 nM, the spleen size [2, 5] was “able to reduce spleen size” and the “white blood cell count” value [2, 5] was “able to slow the expansion of white blood cells”. The “Fa (fraction affected, change vs vehicle), MPL SPL” value [2, 6] was 0.5558, the “MPL SPL (sizes of the spleens)” value [2, 6] was 0.3611 grams and the “spleen length reduction by spleen palpation” value (myelofibrosis; first participant, monotherapy 12 mg QD, nadir vs baseline) was 92.5%. The clinical outcome (myelofibrosis; second participant, monotherapy 8 mg QD, on study 24 days) was “only disease progression”, the tumor regression (HEL cells; 30 mg/kg QD oral) was “one statistical tumor regression” and the “tolerability (body weight loss)” value (HEL cells; all doses, oral) was “All doses were tolerated”. The “tumor growth (mean tumor volume) vs vehicle” value (HEL cells; oral, 1 or 3 mg/kg BID, 3, 10 or 30 mg/kg QD, p<0.02 each group) was “inhibited tumor growth in a dose-related manner”, the “Tmax, median” value ([3]; 8 mg QD, cycle 1 day 1, N = 12) was 2.00 h and the “dose proportionality of steady-state Cmax and AUC0-24” value ([3]; 8 to 16 mg QD) was “proportional to dose”. The “steady-state oral clearance, geometric mean CLss/F” value ([3]; 8 to 16 mg QD) was 9.92 to 10.7 L/h, the AUC(0-t) ([3]; human, plasma, oral, 2 mg, 2 mg QD, linear PK extrapolation from 12 mg QD, read-out: estimated steady-state AUC0-24) was 0.457 µM·h and the AUC(0-t) ([3]; human, plasma, oral, 4 mg, 4 mg QD, linear PK extrapolation from 12 mg QD, read-out: estimated steady-state AUC0-24) was 0.913 µM·h. It also gave an AUC(0-t) ([3]; human, plasma, oral, 8 mg, 8 mg QD, cycle 1 day 1, N = 12, read-out: AUClast, geometric mean (CV %)) of 2.09 µM·h, an AUC(0-t) ([3]; human, plasma, oral, 8 mg, 8 mg QD, cycle 1 day 1, N = 12, read-out: AUClast, mean ± SD) of 2.31 ± 1.12 µM·h and a Cmax ([3]; human, plasma, oral, 8 mg, 8 mg QD, cycle 1 day 1, N = 12, read-out: Cmax, geometric mean (CV %)) of 188 nM. For the same compound, the Cmax ([3]; human, plasma, oral, 8 mg, 8 mg QD, cycle 1 day 1, N = 12, read-out: Cmax, mean ± SD) was 201 ± 83.6 nM, the AUC(0-t) ([3]; human, plasma, oral, 12 mg, 12 mg QD, cycle 1 day 1, N = 99, read-out: AUClast, geometric mean (CV %)) was 2.55 µM·h and the AUC(0-t) ([3]; human, plasma, oral, 12 mg, 12 mg QD, cycle 1 day 1, N = 99, read-out: AUClast, mean ± SD) was 2.74 ± 1.09 µM·h. It also gave a Cmax ([3]; human, plasma, oral, 12 mg, 12 mg QD, cycle 1 day 1, N = 99, read-out: Cmax, geometric mean (CV %)) of 249 nM, a Cmax ([3]; human, plasma, oral, 12 mg, 12 mg QD, cycle 1 day 1, N = 99, read-out: Cmax, mean ± SD) of 266 ± 94.7 nM and an AUC(0-t) ([3]; human, plasma, oral, 12 mg, 12 mg QD, read-out: steady-state AUC0-24, geometric mean) of 2.74 µM·h. For the same compound, the Cmax ([3]; human, plasma, oral, 12 mg, 12 mg QD, read-out: steady-state Cmax, geometric mean) was 272 nM, the AUC(0-t) ([3]; human, plasma, oral, 16 mg, 16 mg QD, cycle 1 day 1, N = 7, read-out: AUClast, geometric mean (CV %)) was 3.21 µM·h and the AUC(0-t) ([3]; human, plasma, oral, 16 mg, 16 mg QD, cycle 1 day 1, N = 7, read-out: AUClast, mean ± SD) was 3.37 ± 1.06 µM·h. It also gave a Cmax ([3]; human, plasma, oral, 16 mg, 16 mg QD, cycle 1 day 1, N = 7, read-out: Cmax, geometric mean (CV %)) of 329 nM, a Cmax ([3]; human, plasma, oral, 16 mg, 16 mg QD, cycle 1 day 1, N = 7, read-out: Cmax, mean ± SD) of 343 ± 93.2 nM and a Tmax ([3]; human, plasma, oral, 12 mg QD, cycle 1 day 1, N = 99, read-out: Tmax, median) of 0.5 h. It also gave a half-life ([3]; human, plasma, oral, 12 mg QD, steady-state, read-out: t1/2, geometric mean (converted)) of 9.17 h, an AUC ([3]; human, plasma, oral, 16 mg QD, read-out: steady-state AUC, geometric mean) of 3.61 µM·h and a Vd/F ([3]; human, plasma, oral, 8 to 16 mg QD, read-out: volume of distribution, geometric mean Vz/F) of 138 to 197 L. The Tmax ([3]; human, plasma, oral, multiple-dose, fasted state, 8 to 16 mg QD, read-out: median Tmax) was 1 to 2 h, the half-life ([3]; human, plasma, oral, multiple-dose, not dose-dependent, read-out: steady-state geometric mean half-life (converted)) was roughly 10 h and the “accumulation of exposure (steady-state AUC0-24 vs first dose AUC0-24)” value ([3]; once daily dosing) was less than 10%. For the same compound, the “time to steady-state (predicted)” value ([3]; once daily dosing, based on effective half-life of 10 hours) was 2 days, the tumor growth inhibition (SET-2 cells; ruxolitinib 30 mg/kg BID, Compound 1 10 mg/kg QD, or both, oral, 14 days) was “significantly inhibited tumor growth” and the “Fa (tumor growth inhibition level), SET-2” value (SET-2 cells; table head: ruxolitinib 60 mg/kg BID, Compound 1 10 mg/kg QD, combination) was 0.24. For the same compound, the “predicted probability of hyperglycemia incidence” value ([4]; 2 mg) was 8.0%, the “predicted probability of hyperglycemia incidence” value ([4]; 4 mg) was 9.2% and the AUCss,0-24, fourth quartile ([4]; FIG. 8, monotherapy 8-16 mg QD) was 3.61 µM·h. The AUCss,0-24, second quartile ([4]; FIG. 8, monotherapy 8-16 mg QD) was 2.07 µM·h, the AUCss,0-24, third quartile ([4]; FIG. 8, monotherapy 8-16 mg QD) was 2.62 µM·h and the AUC ([4]; 12 mg, participant 1011, Grade 4 gastrointestinal hemorrhage, 12 mg QD, read-out: AUCss,0-24 of individual participant) was 3.47 µM·h. It also gave an AUC ([4]; 12 mg, participant 9002, Grade 4 gastrointestinal hemorrhage, 12 mg QD, read-out: AUCss,0-24 of individual participant) of 3.61 µM·h, an AUC ([4]; 12 mg, participant 12005, Grade 3 INR increased, 12 mg QD, concomitant warfarin, read-out: AUCss,0-24 of individual participant) of 6.99 µM·h and an AUC ([4]; 16 mg, participant 16001, Grade 3 INR increased, 16 mg QD, concomitant warfarin, read-out: AUCss,0-24 of individual participant) of 9.77 µM·h. The AUC ([4]; FIG. 8, monotherapy 8-16 mg QD, read-out: AUCss,0-24, first quartile) was 0.893 to 2.04 µM·h, the “clinically notable AE incidence: INR increased” value ([4]; monotherapy 8, 12 or 16 mg) was 8.5% and the “clinically notable AE incidence: epistaxis” value ([4]; monotherapy 8, 12 or 16 mg) was 9.9%. The “clinically notable AE incidence: gastrointestinal hemorrhage” value ([4]; monotherapy 8, 12 or 16 mg) was 1.9%, the “clinically notable AE incidence: hyperglycemia” value ([4]; monotherapy 8, 12 or 16 mg) was 17.4% and the “TEAE incidence: anemia” value [4, 7] was 27.3%. The “TEAE incidence: constipation” value [4, 7] was 20.7%, the “TEAE incidence: decreased appetite” value [4, 7] was 35.5% and the “TEAE incidence: diarrhea” value [4, 7] was 27.3%. For the same compound, the “TEAE incidence: dysgeusia” value [4, 7] was 19.8%, the “TEAE incidence: fatigue” value [4, 7] was 45.5% and the “TEAE incidence: nausea” value [4, 7] was 47.9%. For the same compound, the “TEAE incidence: thrombocytopenia” value [4, 7] was 28.9%, the “TEAE incidence: vomiting” value [4, 7] was 28.1% and the “AUCss,0-24 of individual participant” value ([4]; participant 9002, Grade 4 gastrointestinal hemorrhage, 12 mg QD) was 2.15 µM·h. The “AUCss,0-24 of individual participant” value ([4]; participant 16001, Grade 3 INR increased, 16 mg QD, concomitant warfarin) was 9.79 µM·h.
